Drawing on ChEMBL document CHEMBL1155593, “Bioactive sesquiterpenes from the basidiomycete Resupinatus leightonii” (J Nat Prod, 2000), this text covers IC50 and Activity for two compounds.

Experiment [1] is described as follows: Cytotoxicity against mouse B16-F1cells. In kind it is functional, cell-based. Conditions: B16-F1.
The next experiment concerns HL-60. As to the kind of experiment: Cytotoxicity against human HL60 cells. In kind it is functional, cell-based.
In experiment [2] the test system is Pyricularia grisea. As to the kind of experiment: Inhibition of chlorophenylthio-cAMP-induced appressorium formation in germinating conidia of Magnaporthe grisea P1. In kind it is functional, organism-based.
Experiment [3] deals with Pyricularia grisea. As to the kind of experiment: Inhibition of hydrophobic gel bonded surface-induced appressorium formation in germinating conidia of Magnaporthe grisea P1. In kind it is functional, organism-based.
In another experiment the test system is HeLa. As to the kind of experiment: Cytotoxicity against human HeLa S3 cells. In kind it is functional, cell-based.
For experiment [4], the system named is Pyricularia grisea. As to the kind of experiment: Inhibition of 1,16-hexadecanediol-induced appressorium formation in germinating conidia of Magnaporthe grisea P1. In kind it is functional, organism-based.
Another experiment concerns Jurkat. As to the kind of experiment: Cytotoxicity against human Jurkat cells. In kind it is functional, cell-based.

≈ marks a conversion by molar mass, not a printed value. Calls of active or inactive are those of the source. The calls are words filed in the database; no cut-off is given here.

What is called IC50 is the point on the concentration scale where inhibition reaches its midpoint.

For `C/C1=C\[C@@H](O)C/C(C)=C/[C@H](O)[C@H]([C@@H](C)CO)CC1`, the IC50 is > 100 µg/mL in experiment [1]; 10 µg/mL (≈ 39.3 µM) in the experiment with HL-60; 50 µg/mL (≈ 197 µM) with Pyricularia grisea [2]; > 100 µg/mL with HeLa; 20 µg/mL (≈ 78.6 µM) with Jurkat. In addition, the result in the experiment on Pyricularia grisea [3] and in the experiment on Pyricularia grisea [4] was inactive.
As to `C=C[C@@](C)(O)CC/C=C(\C)CC[C@H](O)C(C)(C)O`, the IC50 in experiment [1] stood at 75 µg/mL (≈ 293 µM); in the experiment on HL-60 it was 5 µg/mL (≈ 19.5 µM); in the experiment on Pyricularia grisea [2], 10 µg/mL (≈ 39 µM); in the experiment with HeLa it was 75 µg/mL (≈ 293 µM); in the experiment on Jurkat, 20 µg/mL (≈ 78 µM). For the same compound, the result in the experiment on Pyricularia grisea [3] and in the experiment with Pyricularia grisea [4] was inactive.
